Literature values in patent US9517201B2, “Nanocarrier and nanogel compositions” (RUTGERS, THE STATE UNIVERSITY OF NEW JERSEY, priority 2008, dated 2016).
Where a name gives a salt, the structure may show the parent alone.

COc1cccc2c1C(=O)c1c(O)c3c(c(O)c1C2=O)C[C@@](O)(C(=O)CO)C[C@@H]3O[C@H]1C[C@H](N)[C@H](O)[C@H](C)O1 [Doxorubicin Hydrochloride, Doxorubicin hydrochloride]
solubility of Doxorubicin Hydrochloride in water: ~10000 µg/mL
